# Data from US8466185B2, “Methods and assays for detecting and treating hypoglycemia” (priority 2008, dated 2013).
# Entries after “also recorded” stand apart in the source; their conditions may differ.
# Assays:
# human islets [1] = test: in vitro perifusion, glucagon secretion from human islets; type: cell-based; conditions: for effect on basal glucagon secretion or glucagon responses to glutamate: 100 μM
# Description: (§2) A high-capacity, automated perifusion system was developed to dynamically measure hormone secretion from pancreatic islets. A low pulsatility peristaltic pump pushed HEPES-buffered solution (mM: 125 NaCl, 5.9 KCl, 2.56 CaCl2, 1 MgCl2, 25 HEPES, and 0.1% BSA; pH 7.4; and a perifusion rate of 100 μL/min) through a column containing 100 pancreatic islets immobilized in Bio-Gel P-4 Gel (BioRad, Hercules, Calif.). Except otherwise stated, glucose concentration was adjusted to 3 mM for all experiments. Stimuli were applied with the perifusion buffer. The perifusate was collected in an automatic fraction collector designed for a 96 well plate format. The columns containing the islets and the perifusion solutions were kept at 37° C., and the perifusate in the collecting plate was kept at <4° C. Perifusates were collected every minute. Hormone release in the perifusate was determined with the human or mouse Endocrine LINCOplex Kit following manufacturer's instructions (Linco research, St. Charles, Mo.).
# human islets [2] = test: in vitro perifusion, insulin release from human islets; conditions: 100 μM
# Description: as §2
# monkey islets [3] = test: in vitro perifusion, insulin release from monkey islets; conditions: 100 μM; not shown
# mouse islets [4] = test: perifusion, glucagon secretion from mouse islets; type: cell-based, mouse (C57Bl/6)
# Description: as §2
# C57BL/6 mice = test: in vivo responses to iGluR agonists injected i.p.; design: species or system mouse
# Description: (§1) We examined in vivo responses to iGluR agonists by injecting C57BL/6 mice i.p. with either PBS (n=4), monosodium glutamate (30 mg/kg; n=7), or AMPA (15 mg/kg; n=8). To determine whether blocking iGluRs exacerbates insulin-induced hypoglycemia, we injected the AMPA/kainate iGluR antagonist NBQX (Tocris, Ellisville, Mo.) i.p. at 20 mg/kg 30 minutes before mice were treated with insulin to induce hypoglycemia.
# [5] = system: monkey islets and dispersed single islet cells; test: [Ca^2+]i imaging (Fura-2) of monkey islets and islet cells; type: cell-based, monkey (Macacca fascicularis); conditions: nifedipine 10 μM; for inhibition of [Ca^2+]i responses to kainate: CNQX 10 μM, La^3+ 30 μM
# Description: Imaging of [Ca^2+]i was performed as described elsewhere (Cabrera et al., 2006). […] Glucose was added to give a final concentration of 3 mM. Islets or dispersed islet cells were incubated in Fura-2 AM (2 μM; 1 hour) and placed in a closed small-volume imaging chamber (Warner Instruments, Hamden, Conn.). Stimuli were applied with the bathing solution. Islets loaded with Fura-2 were excited alternatively at 340 and 380 nm with a monochromator light source (Cairn. Research Optoscan Monochromator, Cairn Research Ltd, Faversham, UK). Images were acquired with a Hamamatsu camera (Hamamatsu Corp, Japan) attached to a Zeiss Axiovert 200 microscope (Carl Zeiss, Jena, Germany). Changes in the 340/380 fluorescence emission ratio over time were analyzed in individual islets and dispersed cells using Kinetic Imaging AQM Advance software (Kinetic Imaging, N.C.). Peak changes in the fluorescence ratio constituted the response amplitude.
# mice [6] = type: in vivo, mouse; conditions: NBQX 20 mg/kg i.p.
# Description: as §1
# In initial experiments, mice were injected with insulin (1.5 U/kg; i.p.) to induce hypoglycemia.
# mice [7] = test: hyperinsulinemic-hypoglycemic clamp in conscious mice; type: in vivo, mouse; conditions: NBQX 10 mg/kg iv versus saline
# Description: To provide a standardized hypoglycemic stimulus we further conducted studies using the hyperinsulinemic-hypoglycemic clamp. At least 4 days before the experiments, mice were anesthetized with isoflurane, and an indwelling catheter was inserted in the left jugular vein and externalized through an incision in a skin flap behind the head. Mice were fasted for 4 hours and placed in individual plastic containers for tail cut sampling. […] A priming dose of insulin (100 mU/kg) was administered, followed by a constant infusion rate of 20 mU/kg/min (Actrapid, Novo Nordisk). The plasma glucose concentration was determined at 10 min intervals using a One Touch Ultra glucose meter. Glucose (30%) was infused at a variable rate to maintain the plasma glucose concentration at the hypoglycemic levels (˜3 mM). At time 50 min, a hyperinsulinemic-hypoglycemic clamp was achieved. Blood glucose levels were kept at the steady state (3 mM) and NBQX was administered as a bolus (10 mg/kg) at time 60 min, followed by infusion (10 mg/kg) until the end of the experiment. A control experiment was performed using saline (0.9% NaCl) following the same protocol used for NBQX. […] Animals were euthanized by an over-dose of pentobarbital.
# [8] = system: isolated human islet cells; test: whole-cell patch clamp recordings of dispersed human islet cells; type: cell-based; conditions: NBQX 10 μM; kainate 100 μM
# Description: Membrane currents were measured using whole-cell patch clamp recordings of dispersed human islet cells. All recordings were amplified using an EPC10 patch-clamp amplifier and digitized and analyzed using Patchmaster software (Heka Elektronik, Lambrecht, Germany). Pipettes were pulled from borosilicate glass capillaries on a horizontal programmable puller (DMZ Universal Puller, Zeitz-Instrumente, Augsburg, Germany). Pipettes with a resistance of 5-7 MΩ were filled with a pipette solution containing (in mM): 150 NMG (N-methyl-D-Glucamine), 10 EGTA, 1 MgCl2, 2 CaCl2, 5 HEPES and 3 Mg-ATP (pH 7.15). The bath solution contained (in mM): 138 NaCl, 5.6 KCl, 1.2 MgCl2, 2.6 CaCl2, 5 HEPES and 10 TEA (pH7.4). Cells were voltage-clamped at −70 mV. Ligands (e.g. kainate) were applied using the SF-77B Perfusion Fast-Step system (Warner Instruments, Hamden, Conn.), which allows rapid change of solutions bathing a single cell or membrane patch attached to a patch electrode. […] Thus, it is most likely that cells responding to kainate in our electrophysiological experiments were α-cells.
# [9] = system: human islets and dispersed single islet cells; test: [Ca^2+]i imaging (Fura-2) of human islets and dispersed islet cells; type: cell-based; conditions: CNQX 10 μM
# Description: Glucose was added to give a final concentration of 3 mM. Islets or dispersed islet cells were incubated in Fura-2 AM (2 μM; 1 hour) and placed in a closed small-volume imaging chamber (Warner Instruments, Hamden, Conn.). Stimuli were applied with the bathing solution. Islets loaded with Fura-2 were excited alternatively at 340 and 380 nm with a monochromator light source (Cairn. Research Optoscan Monochromator, Cairn Research Ltd, Faversham, UK). Images were acquired with a Hamamatsu camera (Hamamatsu Corp, Japan) attached to a Zeiss Axiovert 200 microscope (Carl Zeiss, Jena, Germany). Changes in the 340/380 fluorescence emission ratio over time were analyzed in individual islets and dispersed cells using Kinetic Imaging AQM Advance software (Kinetic Imaging, N.C.). Peak changes in the fluorescence ratio constituted the response amplitude.
# human islets [10] = type: cell-based; conditions: CNQX 10 μM; measured at 8 minutes after reducing glucose
# Description: Perifusion of the islets was stopped after addition of the stimulus to allow the islet secretory products to accumulate and then resumed after 10 minutes.
# monkey islets [11] = test: microfluorometric determination of endogenous glutamate release from islets; type: cell-based; conditions: kainate 100 μM; KCl 30 mM
# Description: Endogenous glutamate release from pancreatic islets was measured with the Amplex Red Glutamic Acid Assay Kit (Molecular Probes) adapted for microscopic microfluorometric detection (Akagi et al., 2003). In this assay, released glutamate is a substrate in an enzymatic chain reaction that generates the highly fluorescent product resorufin (Molecular Probes, Eugene, Oreg.). L-glutamate is oxidized by glutamate oxidase to produce α-ketoglutarate, NH4, and H2O2. Hydrogen peroxide reacts with the Amplex Red reagent in a reaction catalyzed by horseradish peroxidase to generate resorufin. Pancreatic islets were allowed to attach to a glass coverslip previously coated with poly-D-lysine. The coverslip was mounted in a closed small-volume imaging chamber (Warner Instruments) and perifused with the HEPES-buffered solution containing the stimuli. Resorufin fluorescence was excited at 510 nm, and the emission recorded at 590 nm using the same imaging system used to measure [Ca^2+]i (see above).
# mouse islets [12] = test: perifusion of mouse islets with β cells destroyed by streptozotocin versus intact islets; type: cell-based; conditions: arginine 5 mM; streptozotocin-treated versus intact islets
# Description: This experiment was performed with mouse islets. Two samples were perifused in parallel (“a” and “b”). In “a” (blue curve and blue bar), but not in “b” (red curve and red bar) the β cells were selectively destroyed with streptozotocin. This absence of β cells generates type 1 diabetes-like condition in vitro. The glucagon release profile in panel “A” was obtained by using this model. […] Note that the non specific stimulus arginine is not able to differentiate a functionally impaired α cell in the absence of β cells.
# At t=5 min, both samples were stimulated with 100 μM kainate for 5 min. The glucose was increased to 11 mM for 10 minutes and decreased again to 3 mM for the duration of the perifusion. At t=45 min, both samples (v) were stimulated with 5 mM Arginine. […] Kainate is a glutamate analog that is not metabolizable, and therefore a preferred agonist of the AMPA/Kainate receptors. Error bars represent the standards deviations for n=3 perifusions. Comparison were performed by an independent t-test.
# For example, in some embodiments the present invention are directed to an in vitro model in which we destroy selectively the beta cells with, for example, streptozotocin, thus creating a situation that mimics type 1 diabetes. The treated islets are composed mainly of alpha cells. […] To examine if alpha cells in islets depleted of beta cells had impaired glutamate signaling, we stimulated them with kainate, an agonist for ionotropic glutamate receptors.
compound,measurement,setting,value
Cc1o[nH]c(=O)c1CC(N)C(=O)O (stereo not shown) [AMPA],glucagon release / glucagon secretion,"human islets [1]; agonist 100 μM, 3 mM glucose",elicited strong glucagon secretion; also recorded: Increases in glucagon release could also be elicited
same,insulin release,human islets [2],"Neither kainate (100 μM), glutamate (100 μM), nor AMPA (100 μM) stimulated increases in insulin release"
same,insulin release,monkey islets [3],"Neither kainate (100 μM), glutamate (100 μM), nor AMPA (100 μM) stimulated increases in insulin release"
same,glucagon release / secretion,mouse islets [4]; 100 μM,stimulated glucagon secretion
same,convulsions indicative of central nervous penetration,C57BL/6 mice; AMPA 15 mg/kg i.p.,did not induce convulsions
same,plasma insulin concentrations,"C57BL/6 mice; glutamate 30 mg/kg, AMPA 15 mg/kg, i.p.",not affected; also recorded: did not change
same,plasma glucagon concentrations,"C57BL/6 mice; glutamate 30 mg/kg, AMPA 15 mg/kg, i.p., 30 minutes after treatment",increased plasma glucagon concentrations
same,plasma glucose concentrations,"C57BL/6 mice; glutamate 30 mg/kg, AMPA 15 mg/kg, i.p., thirty minutes after injection",increased glucose levels; also recorded: increased plasma glucose concentrations
[La+3] [La^3+],kainate-stimulated glucagon secretion in presence of Ca^2+ channel blockers,human islets [1],strongly diminished
same,inhibition of [Ca^2+]i responses to kainate,[5],inhibited; also recorded: abolished
NS(=O)(=O)c1cccc2c1c([N+](=O)[O-])cc1nc(O)c(O)nc12 [NBQX],sedation,mice [6],did not cause sedation
same,insulin-induced drop in glucose plasma levels,"mice [6]; insulin 1.5 U/kg i.p., not shown",increased the insulin-induced drop in glucose plasma levels
same,glucose infusion rate needed to maintain glycemia (~3 mM),mice [7],needed larger infusion rates of glucose; also recorded: significantly larger
same,plasma glucagon / glucagon secretion in response to hypoglycemia,mice [7],lower; also recorded: significantly diminished
same,block of kainate-evoked inward currents,[8],could be blocked
N#Cc1cc2[nH]c(=O)c(=O)[nH]c2cc1[N+](=O)[O-] [CNQX],block of glutamate-induced glucagon responses,human islets [1]; CNQX 10 μM,could be blocked
same,block of [Ca^2+]i responses to glutamate,[9],could be blocked
same,inhibition of glucagon response to lowering glucose from 6 mM to 1 mM,human islets [10],54%
same,inhibition of [Ca^2+]i responses to kainate,[5],inhibited; also recorded: blocked
O=[N+]([O-])c1cc2nc(O)c(O)nc2cc1[N+](=O)[O-] [DNQX],block of glutamate-stimulated glucagon release,"mouse islets [4]; DNQX 10 μM, glutamate 100 μM",blocked
NC1(C(=O)O)C[C@H](C(=O)O)[C@H](C(=O)O)C1 (stereo partly shown) [ACPT-1],effect on basal glucagon secretion or glucagon responses to glutamate,human islets [1],did not elicit changes in glucagon secretion; also recorded: did not affect basal glucagon secretion or glucagon responses to glutamate
same,effect on basal or glutamate-induced glucagon secretion,mouse islets [4]; 100 μM,did not affect basal or glutamate-induced glucagon secretion; also recorded: did not elicit changes in glucagon secretion
[Cl-].[K+] [KCl],glutamate release (resorufin fluorescence),monkey islets [11],induced significant glutamate release; also recorded: elicited large increases in glutamate release
N=C(N)NCCC[C@H](N)C(=O)O [arginine],arginine-induced glucagon release in absence versus presence of β cells,mouse islets [12],not statistically different
NC(C(=O)O)(c1ccc(P(=O)(O)O)cc1)C1CC1 (stereo not shown) [CPPG],effect on basal glucagon secretion or glucagon responses to glutamate,human islets [1],did not affect the glutamate-induced glucagon response; also recorded: did not affect basal glucagon secretion or glucagon responses to glutamate
same,effect on basal or glutamate-induced glucagon secretion,mouse islets [4]; 100 μM,did not affect basal or glutamate-induced glucagon secretion; also recorded: did not affect the glutamate-induced glucagon response
N[C@@]1(C(=O)O)CC[C@@H](C(=O)O)C1 [trans-ACPD],effect on basal glucagon secretion or glucagon responses to glutamate,human islets [1],did not affect basal glucagon secretion or glucagon responses to glutamate
same,effect on basal glucagon secretion or glucagon responses to glutamate,human islets [1]; listed as tACPD,did not elicit changes in glucagon secretion
same,effect on basal or glutamate-induced glucagon secretion,mouse islets [4]; 100 μM,did not affect basal or glutamate-induced glucagon secretion
same,effect on basal or glutamate-induced glucagon secretion,"mouse islets [4]; 100 μM, listed as tACPD",did not elicit changes in glucagon secretion
COC(=O)C1=C(C)NC(C)=C(C(=O)OC)C1c1ccccc1[N+](=O)[O-] [nifedipine],reduction of kainate-induced [Ca^2+]i responses,[5],~60%
